Earlier results in patent publication US20240122858A1, “MODIFIED-RELEASE DOSAGE FORMS OF RUXOLITINIB” (SLAYBACK PHARMA LLC, priority 2021, published 2024).

permeability | aqueous solubility (over a pH range of 1-8) | solubility in aqueous buffers (free base) | Structure (SMILES)
high permeability | high aqueous solubility |  | N#CC[C@H](C1CCCC1)n1cc(-c2ncnc3[nH]ccc23)cn1 [Ruxolitinib phosphate, (3R)-3-cyclopentyl-3-[4-(7H-pyrrolo[2,3-d]-pyrimidin-4-yl)-pyrazol-1-yl]-propanenitrile phosphate]
 |  | sparingly soluble | N#CC[C@H](C1CCCC1)n1cc(-c2ncnc3[nH]ccc23)cn1 [Ruxolitinib]
